US20230293458A1, “MULTIBIOTIC AGENTS AND METHODS OF USING THE SAME” (Flagship Pioneering Innovations V, Inc., priority 2017, published 2023)

Columns and labels:
[1] = Stability of multibiotic agents in Simulated Intestinal Fluid (SIF); type: in vitro ADME; settings: simulated intestinal fluid pH 6.7 with pancreatin, 37° C., 1 μM
Summary of the method: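 Compounds at 1 μM final (from 1 mM DMSO stock) incubated at 37 °C with agitation in fresh SIF (FaSSIF plus pancreatin in pH 6.7 phosphate buffer). Aliquots taken at T0 and regular intervals, quenched with 1 volume acetonitrile. Degradation rate determined by LC/MS.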

[2] = Stability of multibiotic agents in Simulated Gastric Fluid (SGF); type: in vitro ADME; settings: simulated gastric fluid pH 1.6 with pepsin, 37° C., 1 μM
Summary of the method: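 Compounds were incubated at 1 μM final at 37 °C in simulated gastric fluid containing NaCl, pH 1.6, with FaSSIF powder and 0.1 mg/mL pepsin. Aliquots were taken at T0 and at regular intervals and quenched with acetonitrile. Degradation rates were determined by LC/MS.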

Row | SMILES | Assay 3 (SIF) (% @ Remaining 4 hours) [1] | Assay 2 (SGF) (% Remaining @ 4 hours) [2]
1 | CCCC(=O)Oc1cc(OC(=O)CCC)c2c(=O)c(OC(=O)CCC)c(-c3ccc(OC(=O)CCC)c(OC(=O)CCC)c3)oc2c1 [Example 75, [2-butanoyloxy-4-[3,5,7-tri(butanoyloxy)-4-oxo-chromen-2-yl]phenyl]butanoate] | B (25-75% of the tested compound remaining) | C (>75% of the tested compound remaining)
2 | CCCC(=O)OC[C@H]1OC(OC(=O)CCC)[C@H](OC(=O)CCC)[C@@H](OC(=O)CCC)[C@@H]1OC(=O)CCC (stereo partly drawn) [Example 160, [(2R,3R,4S,5R)-3,4,5,6-tetra(butanoyloxy)tetrahydropyran-2-yl]methyl butanoate] | A (<25% of the tested compound remaining) | C (>75% of the tested compound remaining)
3 | COc1cc(/C=C/C(=O)CC(=O)/C=C/c2ccc(OC(=O)Cc3c[nH]c4ccccc34)c(OC)c2)ccc1OC(=O)Cc1c[nH]c2ccccc12 [Example 1, [4-[(1E,6E)-7-[4-[2-(1H-indol-3-yl)acetyl]oxy-3-methoxy-phenyl]-3,5-dioxo-hepta-1,6-dienyl]-2-methoxy-phenyl] 2-(1H-indol-3-yl)acetate] | C (>75% of the tested compound remaining) | C (>75% of the tested compound remaining)
4 | CC(=O)Oc1cc(OC(C)=O)c2c(=O)c(OC(C)=O)c(-c3cc(OC(C)=O)c(OC(C)=O)c(OC(C)=O)c3)oc2c1 [Example 177, [3,5-diacetoxy-4-oxo-2-(3,4,5-triacetoxyphenyl)chromen-7-yl] acetate] | A (<25% of the tested compound remaining) | C (>75% of the tested compound remaining)
5 | CCCC(=O)OC[C@@H](OC(=O)CCC)[C@H]1OC[C@H](OC(=O)CCC)[C@H]1OC(=O)CCC [Example 87, [(2R)-2-butanoyloxy-2-[(2R,3R,4S)-3,4-di (butanoyloxy)tetrahydrofuran-2-yl]ethyl] butanoate] | C (>75% of the tested compound remaining) | C (>75% of the tested compound remaining)
6 | C[C@@H](O)CC(=O)NCCCNC(=O)C[C@@H](C)O [Example 135, (3R)-3-hydroxy-N-[3-[[(3R)-3-hydroxybutanoyl]amino]propyl]butanamide] | C (>75% of the tested compound remaining) | C (>75% of the tested compound remaining)
7 | CC(C)(COC(=O)CCc1c[nH]c2ccccc12)[C@@H](OC(=O)CCc1c[nH]c2ccccc12)C(=O)NCCC(N)=O [Example 98, [(3R)-4-[(3-amino-3-oxo-propyl)amino]-3-[3-(1H-indol-3-yl)propanoyloxy]-2,2-dimethyl-4-oxo-butyl] 3-(1H-indol-3-yl)propanoate] | A (<25% of the tested compound remaining) | C (>75% of the tested compound remaining)
8 | C[C@@H](O)CC(=O)NCCCNCCCNC(=O)C[C@@H](C)O [Example 143, (3R)-3-hydroxy-N-[3-[3-[[(3R)-3-hydroxybutanoyl]amino]propylamino]propyl] butanamide] | C (>75% of the tested compound remaining) | C (>75% of the tested compound remaining)
9 | CCCC(=O)O[C@H](C)CC(=O)OCC(C)(C)[C@@H](OC(=O)C[C@@H](C)OC(=O)CCC)C(=O)NCCC(N)=O [Example 96, [(3R)-4-[(3-amino-3-oxo-propyl)amino]-3-[(3R)-3-butanoyloxybutanoyl]oxy-2,2-dimethyl-4-oxo-butyl] (3R)-3-butanoyloxybutanoate] | C (>75% of the tested compound remaining) | C (>75% of the tested compound remaining)
10 | CCC(=O)OC1OC[C@H](OC(=O)CC)[C@H](OC(=O)CC)[C@H]1OC(=O)CC (stereo partly drawn) [Example 149, [(3S,4S,5R)-4,5,6-tri(propanoyloxy)tetrahydropyran-3-yl] propanoate] | C (>75% of the tested compound remaining) | C (>75% of the tested compound remaining)
11 | O=C(Cc1c[nH]c2ccccc12)OC[C@@H](O)[C@H](COC(=O)Cc1c[nH]c2ccccc12)OC(=O)Cc1c[nH]c2ccccc12 [Example 104, [(2R,3S)-2-hydroxy-3,4-bis[[2-(1H-indol-3-yl)acetyl]oxy]butyl] 2-(1H-indol-3-yl)acetate] | B (25-75% of the tested compound remaining) | C (>75% of the tested compound remaining)
12 | C[C@@H]1CCOC(C)(C(=O)Oc2ccc(/C=C/c3cc(OC(=O)C4(C)OCC[C@@H](C)O4)cc(OC(=O)C4(C)OCC[C@@H](C)O4)c3)cc2)O1 (stereo partly drawn) [Example 182, [4-[(E)-2-[3,5-bis[[(4R)-2,4-dimethyl-1,3-dioxane-2-carbonyl]oxy]phenyl]vinyl]phenyl] (4R)-2,4-dimethyl-1,3-dioxane-2-carboxylate] | C (>75% of the tested compound remaining) | C (>75% of the tested compound remaining)
13 | CCCC(=O)O[C@@H]1[C@H](OC(=O)CCC)[C@H](C)OC(O)[C@H]1OC(=O)CCC (stereo partly drawn) [Example 156, [(2S,3R,4R,5S)-4,5-di(butanoyloxy)-6-hydroxy-2-methyl-tetrahydropyran-3-yl] butanoate] | A (<25% of the tested compound remaining) | C (>75% of the tested compound remaining)
14 | CCCC(=O)NCCC[C@H](NC(=O)CCC)C(=O)O [Example 133, (2S)-2,5-bis(butanoylamino)pentanoic acid] | C (>75% of the tested compound remaining) | C (>75% of the tested compound remaining)
15 | CCCC(=O)O[C@@H]1[C@H](OC(=O)CCC)COC(Oc2ccc(N)cc2C(=O)O)[C@@H]1OC(=O)CCC (stereo partly drawn) [Example 117, 5-amino-2-[(3R,4R,5R)-3,4,5-tri(butanoyloxy)tetrahydropyran-2-yl]oxy-benzoic acid] | C (>75% of the tested compound remaining) | C (>75% of the tested compound remaining)
16 | CCCC(=O)O[C@H]1[C@@H](OC(=O)CCC)COC(Oc2ccccc2C(=O)O)[C@@H]1OC(=O)CCC (stereo partly drawn) [Example 141, 2-[(3R,4S,5S)-3,4,5-tri(butanoyloxy)tetrahydropyran-2-yl]oxybenzoic acid] | A (<25% of the tested compound remaining) | C (>75% of the tested compound remaining)
17 | CC(=O)CC(=O)O[C@H]1CO[C@H]2[C@@H]1OC[C@H]2OC(=O)CC(C)=O [Example 115, [(3S,3aR,6R,6aR)-6-(3-oxobutanoyloxy)-2,3,3a,5,6,6a-hexahydrofuro[3,2-b]furan-3-yl] 3-oxobutanoate] | B (25-75% of the tested compound remaining) | C (>75% of the tested compound remaining)
18 | O=C(Cc1c[nH]c2ccccc12)OC[C@@H](OC(=O)Cc1c[nH]c2ccccc12)[C@H]1OC[C@H](OC(=O)Cc2c[nH]c3ccccc23)[C@H]1OC(=O)Cc1c[nH]c2ccccc12 [Example 106, [(2R)-2-[(2R,3R,4S)-3,4-bis[[2-(1H-indol-3-yl)acetyl]oxy]tetrahydrofuran-2-yl]-2-[2-(1H-indol-3-yl)acetyl]oxy-ethyl] 2-(1H-indol-3-yl)acetate] | C (>75% of the tested compound remaining) | C (>75% of the tested compound remaining)
19 | CCCC(=O)NCCCNC(=O)CCC [Example 126, N-[3-(butanoylamino)propyl]butanamide] | C (>75% of the tested compound remaining) | C (>75% of the tested compound remaining)
20 | CCCC(=O)NCCCN(CCCNC(=O)CCC)C(=O)CCC [Example 129, N-[3-[butanoyl-[3-(butanoylamino)propyl]amino]propyl]butanamide] | C (>75% of the tested compound remaining) | C (>75% of the tested compound remaining)
21 | CC(=O)Oc1ccc2c(c1)oc(=O)c1cc(OC(C)=O)c(OC(C)=O)cc12 [Example 51, (8,9-diacetoxy-6-oxo-benzo[c]chromen-3-yl) acetate] | C (>75% of the tested compound remaining) | C (>75% of the tested compound remaining)
22 | O=C(/C=C/c1c[nH]c2ccccc12)O[C@H]1CO[C@H]2[C@@H]1OC[C@H]2OC(=O)/C=C/c1c[nH]c2ccccc12 [Example 123, [(3R,3aR,6S,6aR)-6-[(E)-3-(1H-indol-3-yl)prop-2-enoyl]oxy-2,3,3a,5,6,6a-hexahydrofuro[3,2-b]furan-3-yl] (E)-3-(1H-indol-3-yl)prop-2-enoate] | C (>75% of the tested compound remaining) | C (>75% of the tested compound remaining)
23 | Cc1ncc(COC(=O)Cc2c[nH]c3ccccc23)c(COC(=O)Cc2c[nH]c3ccccc23)c1OC(=O)Cc1c[nH]c2ccccc12 [Example 102, [5-[2-(1H-indol-3-yl)acetyl]oxy-4-[[2-(1H-indol-3-yl)acetyl]oxymethyl]-6-methyl-3-pyridyl]methyl 2-(1H-indol-3-yl)acetate] | B (25-75% of the tested compound remaining) | C (>75% of the tested compound remaining)
24 | CCC(=O)O[C@@H]1[C@@H](OC(=O)CC)[C@H](OC(=O)CC)CO[C@H]1O [Example 166, [(3R,4S,5R,6R)-6-hydroxy-4,5-di(propanoyloxy)tetrahydropyran-3-yl] propanoate] | B (25-75% of the tested compound remaining) | C (>75% of the tested compound remaining)
